{
  "source": "ChEMBL document CHEMBL1250548",
  "about": "“Synthesis and anti-HIV-1 evaluation of phosphonates which mimic the 5'-monophosphate of 4'-branched 2',3'-didehydro-2',3'-dideoxy nucleosides” (Bioorg Med Chem, 2010)",
  "key": {"[1]": {"test_system": "Human immunodeficiency virus 1", "assay": "Antiviral activity against HIV1 infected in human MT4 cells assessed as protection against virus-induced cytopathic effect", "format": "functional, organism-based", "conditions": "Human immunodeficiency virus 1, MT4"}, "[2]": {"assay": "Cytotoxicity against human MT4 cells assessed as reduction of cell viability", "format": "cell-based"}},
  "data": [
    {"smiles": "C#C[C@@]1(OCP(=O)(O)O)C=C[C@H](n2cc(C)c(=O)[nH]c2=O)O1", "values": [
      {"measurement": "IC50", "setting": "[1]", "value": "> 100", "unit": "µM"},
      {"measurement": "CC50", "setting": "[2]", "value": "> 100", "unit": "µM"}
    ]},
    {"smiles": "C#C[C@@]1(OCP(=O)(O)O)C=C[C@H](n2cnc3c(N)ncnc32)O1", "values": [
      {"measurement": "IC50", "setting": "[1]", "value": 1.69, "unit": "µM"},
      {"measurement": "CC50", "setting": "[2]", "value": "> 100", "unit": "µM"}
    ]},
    {"smiles": "Cc1cn([C@H]2C=C[C@@H](OCP(=O)(O)O)O2)c(=O)[nH]c1=O", "values": [
      {"measurement": "IC50", "setting": "[1]", "value": 12, "unit": "µM"},
      {"measurement": "CC50", "setting": "[2]", "value": "> 600", "unit": "µM"}
    ]},
    {"smiles": "Cc1cn([C@H]2C=C[C@@H](CO)O2)c(=O)[nH]c1=O", "note": "[STAVUDINE]", "values": [
      {"measurement": "IC50", "setting": "[1]", "value": 1.2, "unit": "µM"},
      {"measurement": "CC50", "setting": "[2]", "value": "> 600", "unit": "µM"}
    ]},
    {"smiles": "Nc1ncnc2c1ncn2[C@H]1C=C[C@@H](OCP(=O)(O)O)O1", "values": [
      {"measurement": "IC50", "setting": "[1]", "value": 1.5, "unit": "µM"},
      {"measurement": "CC50", "setting": "[2]", "value": "> 600", "unit": "µM"}
    ]}
  ]
}
